Calls of active or inactive are those of the source. The calls are words filed in the database; no cut-off is given here.
Assays:
[1] = biological target: T1, 2-5A-dependent ribonuclease (Homo sapiens, UniProt Q05823); assay: Induction of recombinant human RNase L activity expressed in Escherichia coli using F-5'-r(C11U2C7)-3' as substrate by polyacrylamide gel electrophoresis
T1 sequence (Q05823 whole entry): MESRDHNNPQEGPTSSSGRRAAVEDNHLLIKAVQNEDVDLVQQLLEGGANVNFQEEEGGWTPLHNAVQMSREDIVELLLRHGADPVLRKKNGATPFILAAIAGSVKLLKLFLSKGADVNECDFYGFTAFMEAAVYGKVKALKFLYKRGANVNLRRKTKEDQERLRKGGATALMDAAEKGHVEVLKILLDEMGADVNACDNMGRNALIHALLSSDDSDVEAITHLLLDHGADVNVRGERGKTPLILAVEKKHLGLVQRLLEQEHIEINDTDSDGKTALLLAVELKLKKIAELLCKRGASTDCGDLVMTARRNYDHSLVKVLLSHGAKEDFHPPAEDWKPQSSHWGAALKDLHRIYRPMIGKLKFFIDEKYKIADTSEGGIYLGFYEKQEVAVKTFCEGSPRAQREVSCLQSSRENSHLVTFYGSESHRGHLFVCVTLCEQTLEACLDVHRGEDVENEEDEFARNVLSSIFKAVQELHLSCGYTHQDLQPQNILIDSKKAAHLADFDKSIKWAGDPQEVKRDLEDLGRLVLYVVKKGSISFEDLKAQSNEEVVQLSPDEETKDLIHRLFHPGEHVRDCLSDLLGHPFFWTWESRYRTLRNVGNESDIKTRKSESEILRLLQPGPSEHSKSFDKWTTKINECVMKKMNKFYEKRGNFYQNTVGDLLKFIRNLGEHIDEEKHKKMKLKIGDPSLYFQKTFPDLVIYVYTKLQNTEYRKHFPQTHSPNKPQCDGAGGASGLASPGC

[2] = biological target: T2, 2-5A-dependent ribonuclease (Homo sapiens) (UniProt Q05823); assay: Ratio of p5'A2'p5'A2'p5'A2'p5'A EC50 to compound EC50 for recombinant human RNase L activity
T2 sequence (whole entry): T1 sequence (Q05823 whole entry)

[3] = tested on: HeLa; assay: Cytotoxicity against human HeLa cells assessed as cell growth inhibition after 6 to 24 hrs by counting chamber analysis; assay type: functional, cell-based
[4] = tested on: HeLa; assay: Cytotoxicity against human HeLa cells assessed as cell growth at 1 uM after 6 to 24 hrs by counting chamber analysis relative to control; assay type: functional; conditions: read-out: Activity
[5] = Half life of the compound assessed as snake venom phosphodiesterase-mediated compound hydrolysis at 9 uM by HPLC analysis; assay type: ADME; conditions: serpentes
[6] = tested on: HeLa; assay: Cytotoxicity against human HeLa cells assessed as cell growth inhibition at 0.1 to 1 uM after 6 to 24 hrs by counting chamber analysis; assay type: functional, cell-based

EC50 ([1]; read-out: EC50) [nM]	Ratio EC50 [2]	SMILES	also measured
134	0.1	Cc1nc2c(N)ncnc2n1[C@@H]1O[C@H](COP(=O)(O)O[C@@H]2[C@H](O)[C@@H](COP(=O)(O)O[C@@H]3[C@H](O)[C@@H](COP(=O)(O)O[C@H]4[C@@H](O)[C@H](n5ccc(=O)[nH]c5=O)O[C@@H]4CO)O[C@H]3n3cnc4c(N)ncnc43)O[C@H]2n2cnc3c(N)ncnc32)[C@@H](O)[C@H]1O	–
2.7	4.8	Cc1nc2c(N)ncnc2n1[C@@H]1O[C@H](COP(=O)(O)O[C@@H]2[C@H](O)[C@@H](COP(=O)(O)O[C@@H]3[C@H](O)[C@@H](COP(=O)(O)O[C@@H]4[C@H](O)[C@@H](COP(=O)(O)O)O[C@H]4n4ccc(=O)[nH]c4=O)O[C@H]3n3cnc4c(N)ncnc43)O[C@H]2n2cnc3c(N)ncnc32)[C@@H](O)[C@H]1O	–
2.3	5.6	Cc1nc2c(N)ncnc2n1[C@@H]1O[C@H](COP(=O)(O)O[C@@H]2[C@H](O)[C@@H](COP(=O)(O)O[C@@H]3[C@H](O)[C@@H](COP(=O)(O)O[C@@H]4[C@H](O)[C@@H](CO)O[C@H]4n4cnc5c(N)ncnc54)O[C@H]3n3cnc4c(N)ncnc43)O[C@H]2n2cnc3c(N)ncnc32)[C@@H](O)[C@H]1O	–
2.4	5.4	Cc1nc2c(N)ncnc2n1[C@@H]1O[C@H](COP(=O)(O)O[C@@H]2[C@H](O)[C@@H](COP(=O)(O)O[C@@H]3[C@H](O)[C@@H](COP(=O)(O)O[C@@H]4[C@H](O)[C@@H](CO)O[C@H]4n4ccc(=O)[nH]c4=O)O[C@H]3n3cnc4c(N)ncnc43)O[C@H]2n2cnc3c(N)ncnc32)[C@@H](O)[C@H]1O	–
84	0.15	Nc1ncnc2c1ncn2[C@@H]1O[C@H](COP(=O)(O)O[C@@H]2[C@H](O)[C@@H](COP(=O)(O)O[C@@H]3[C@H](O)[C@@H](COP(=O)(O)O[C@@H]4[C@H](O)[C@@H](COP(=O)(O)O)O[C@H]4n4ccc(=O)[nH]c4=O)O[C@H]3n3cnc4c(N)ncnc43)O[C@H]2n2cnc3c(N)ncnc32)[C@@H](O)[C@H]1O	–

The remaining lines, values behind:

SMILES	EC50 ([1]; read-out: EC50) [nM]	Ratio EC50 [2]	also measured
Cc1nc2c(N)ncnc2n1[C@@H]1O[C@H](COP(=O)(O)O[C@@H]2[C@H](O)[C@@H](COP(=O)(O)O[C@@H]3[C@H](O)[C@@H](COP(=O)(O)O[C@@H]4[C@H](O)[C@@H](C)O[C@H]4n4cc(F)c(=O)[nH]c4=O)O[C@H]3n3cnc4c(N)ncnc43)O[C@H]2n2cnc3c(N)ncnc32)[C@@H](O)[C@H]1O	0.45	28.9	growth inhibition (GI) [3]: Dose-dependent effect; growth at 1 µM [4]: 25%; half-life at 9 µM [5]: 9 min
C[C@H]1O[C@@H](n2cc(F)c(=O)[nH]c2=O)[C@H](O)[C@@H]1O	–	–	growth inhibition (GI) [3]: Dose-dependent effect
Cc1nc2c(N)ncnc2n1[C@@H]1O[C@H](COP(=O)(O)O[C@@H]2[C@H](O)[C@@H](COP(=O)(O)O[C@@H]3[C@H](O)[C@@H](COP(=O)(O)O[C@H]4[C@@H](O)[C@H](n5cnc6c(N)ncnc65)O[C@@H]4CO)O[C@H]3n3cnc4c(N)ncnc43)O[C@H]2n2cnc3c(N)ncnc32)[C@@H](O)[C@H]1O	20.3	0.64	–
Nc1ncnc2c1ncn2[C@@H]1O[C@H](COP(=O)(O)O[C@@H]2[C@H](O)[C@@H](COP(=O)(O)O[C@@H]3[C@H](O)[C@@H](COP(=O)(O)O[C@@H]4[C@H](O)[C@@H](COP(=O)(O)O)O[C@H]4n4cnc5c(N)ncnc54)O[C@H]3n3cnc4c(N)ncnc43)O[C@H]2n2cnc3c(N)ncnc32)[C@@H](O)[C@H]1O	12.9	–	half-life at 9 µM [5]: 6.4 min; growth inhibition (GI) [6]: inactive
Nc1ncnc2c1ncn2[C@@H]1O[C@H](COP(=O)(O)O[C@@H]2[C@H](O)[C@@H](COP(=O)(O)O[C@@H]3[C@H](O)[C@@H](COP(=O)(O)O[C@@H]4[C@H](O)[C@@H](CO)O[C@H]4n4cnc5c(N)ncnc54)O[C@H]3n3cnc4c(N)ncnc43)O[C@H]2n2cnc3c(N)ncnc32)[C@@H](O)[C@H]1O	–	–	EC50 [1]: Not Active

Source: ChEMBL document CHEMBL3817765, “Doxifluridine-conjugated 2-5A analog shows strong RNase L activation ability and tumor suppressive effect” (Bioorg Med Chem, 2016)
